In patent publication US7645753B2, “Benzothiazole, thiazolopyridine, benzooxazole and oxazolopyridine derivatives” (Hoffmann-La Roche Inc., priority 2005, dated 2010) one finds Ki data, which are given here for three compounds.

The target of the test is T1, human subtype 5 somatostatin receptor (Homo sapiens, UniProt P35346).
T1 construct: host or cells: CHO cells, stably transfected; membranes prepared by sonication and fractionating centrifugation
T1 sequence (P35346 whole entry): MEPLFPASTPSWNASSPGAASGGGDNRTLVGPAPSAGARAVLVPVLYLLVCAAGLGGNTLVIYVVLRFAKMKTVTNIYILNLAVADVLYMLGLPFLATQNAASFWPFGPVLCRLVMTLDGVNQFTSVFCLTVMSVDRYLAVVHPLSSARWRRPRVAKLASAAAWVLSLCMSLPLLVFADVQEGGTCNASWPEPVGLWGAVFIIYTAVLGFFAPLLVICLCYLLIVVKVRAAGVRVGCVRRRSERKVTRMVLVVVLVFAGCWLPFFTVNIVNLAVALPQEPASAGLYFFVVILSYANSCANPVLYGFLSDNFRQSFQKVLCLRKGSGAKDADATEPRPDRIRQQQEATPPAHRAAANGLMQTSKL
Put plainly: Radioligand binding to membranes of CHO cells expressing human SSTR5 (125I-labeled 11-Tyr somatostatin-14 tracer). The note with it: Ki calculated from IC50 by Cheng-Prussoff equation. As for the experimental part:
A CHO cell line stably transfected with a plasmid encoding the human subtype 5 somatostatin receptor (GenBank accession number D16827) was obtained from Euroscreen. Cells were cultured and used for binding and functional assays.
Membranes of these cells were prepared by sonication in the presence of protease inhibitors and subsequent fractionating centrifugation. The protein concentration in the membrane preparation was determined using a commercial kit (BCA kit, Pierce, USA). Membranes were stored at −80° C. until use. After thawing, membranes were diluted in assay buffer (50 mM Tris-HCl at pH 7.4, 5 mM MgCl2 and 0.20% BSA) and subjected to dounce homogenization.
For binding studies, 0.1 mL membrane suspension, corresponding to app. 6×10^−15 mol receptor, was incubated for 1 h at room temperature with 0.05 nM ^125I-labeled tracer (11-Tyr somatostatin-14, Perkin-Elmer) and either test compounds in varying concentrations or, for the determination of non-specific binding, 0.001 mM non-labeled somatostatin-14. The incubation was stopped by filtration through GF/B glassfiber filters and washing with ice-cold wash buffer (50 mM Tris-HCl at pH 7.4). The bound radioactivity was measured after application of a scintillation cocktail (Microscint 40) and expressed as disintegrations per minute (dpm).
The receptor concentration was determined in a prior saturation experiment where a fixed, arbitrary amount of membranes was incubated with a concentration range of radio-labeled tracer. This allows estimating the total number of specific binding sites per amount of protein (i.e., Bmax), typically between 1 and 5 pmol/mg.
The concentration of the test compound required to result in half maximal inhibition of binding of the radio-labeled tracer (IC50) was estimated from a concentration-versus-dpm graph. The binding affinity (Ki) was calculated from the IC50 by applying the Cheng-Prussoff equation for single binding sites.
What is called Ki is a measure of affinity in units of concentration, obtained from inhibition or displacement. As to `CCOc1cc(CN2CCC(Nc3nc4cc(NC(=O)CC)ccc4o3)CC2)ccc1OC` [Example 243, N-{2-[1-(3-ethoxy-4-methoxy-benzyl)-piperidin-4-ylamino]-benzooxazol-5-yl}-propionamide], the Ki was 293 nM.

On to `CCOc1cc(CN2CCC(Nc3nc4cc(S(N)(=O)=O)ccc4o3)CC2)cc(OCC)c1-n1cccc1` [Example 129, 2-[1-(3,5-diethoxy-4-pyrrol-1-yl-benzyl)-piperidin-4-ylamino]-benzooxazole-5-sulfonic acid amide], for which the inhibition constant Ki is 4.1 nM.

As for `CCOc1cc(CN2CCC(Nc3nc4ccc(Cl)cc4o3)CC2)cc(OCC)c1-n1cccc1` [Example 94, (6-chloro-benzooxazol-2-yl)-[1-(3,5-diethoxy-4-pyrrol-1-yl-benzyl)-piperidin-4-yl]-amine], the Ki is 59 nM.
